The record followed here is the supplement of paper PMC11061612.

For assay [1], the system named is GA-10 (Burkitt's Lymphoma). Description: combination Emax (second highest fraction inhibited in the dose matrix, 72 h); higher = more inhibition; extreme values may be limits of the assay. The gist of the method: (§1)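 After 24 hours at 37°C and 5% CO2 in 1536-well plates, cells in DMEM/F12 or RPMI plus 10% FBS received two-drug dose matrices for 72 hours. Viability came from CellTiter-Glo 2.0 luminescence and was scaled as inhibition, anchored at 0 by vehicle wells and at 1 by blank wells. Combination Emax is taken as the second-highest inhibition in the matrix, and Bliss excess as the observed combination effect less EA + EB − EA·EB, with EA and EB the single-agent effects.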

Another assay has as its system COLO-792 (Melanoma). Described as above. The method in brief: as §1
In assay [2] the test system is G-402 (Other Solid Carcinomas). Described as above. The method in brief:
as §1

For assay [3], the system named is CAL-27 (Oral Cavity Carcinoma). The description is as above. The gist of the method: as §1
Assay [4] deals with CESS (Acute Myeloid Leukemia). The assay is described as above. The method in brief:
as §1

Another assay deals with EW-16 (Ewing's Sarcoma). The description is as above. The gist of the method:
as §1

For assay [5], the system named is DU-4475 (Breast Carcinoma). The description is as above. The gist of the method:
as §1

In assay [6] the test system is EPLC-272H (Other Solid Carcinomas). The assay is described as above. The method in brief: as §1
The test system of the next assay is A204 (Rhabdomyosarcoma). The assay is described as above. The method in brief:
as §1

The next assay concerns AU565 (Breast Carcinoma). The description is as above. The method in brief:
as §1

For a further assay, the system named is A101D (Melanoma). The description is as above. The gist of the method:
as §1

The subject of assay [7] is A253 (Head and Neck Carcinoma). The assay is described as above. The method in brief:
as §1

The subject of another assay is RH-41 (Rhabdomyosarcoma). Described as above. The gist of the method: as §1
For assay [8], the system named is JVM-2 (B-Cell Non-Hodgkin's Lymphoma). Described as above. The gist of the method:
as §1

In assay [9] the test system is DMS-53 (Small Cell Lung Carcinoma). The description is as above. The gist of the method: as §1
For assay [10], the system named is huH-1 (Hepatocellular Carcinoma). The assay is described as above. The method in brief: as §1
The subject of assay [11] is LS-411N (Colorectal Carcinoma). Described as above. The method in brief: as §1
For assay [12], the system named is A253 (Head and Neck Carcinoma). Put plainly: Bliss excess, mean over the matrix (fraction); higher = more synergy. The method in brief:
as §1

The subject of assay [13] is UACC-812 (Breast Carcinoma). Put plainly: combination Emax (second highest fraction inhibited in the dose matrix, 72 h); higher = more inhibition; extreme values may be limits of the assay. The method in brief: as §1

As to `CC(=O)c1c(C)c2cnc(Nc3ccc(N4CCNCC4)cn3)nc2n(C2CCCC2)c1=O` [Palbociclib] + CN(CC[C@H](CSC1=CC=CC=C1)NC2=C(C=C(C=C2)S(=O)(=O)NC(=O)C3=CC=C(C=C3)N4CCC(CC4)[C@H](C5=CC=CC=C5C6=CC=C(C=C6)Cl)O)S(=O)(=O)C(F)(F)F)CCO [AZD4320] (first compound max 10 µM, 7x7, partner max 1 µM), the “combination Emax” value came out at 0.95 in [1]; 0.975 in the assay on COLO-792 (Melanoma); 0.781 in assay [2]; 0.162 in [3]; 0.906 in assay [4]; 0.64 in the assay with EW-16 (Ewing's Sarcoma). In addition, the “combination Emax” value is 0.943 in assay [5]; 0.594 in [6]; 0.377 in the assay with A204 (Rhabdomyosarcoma); 0.227 in the assay on AU565 (Breast Carcinoma); 0.738 in the assay with A101D (Melanoma); 0.202 in [7]. In addition, the “combination Emax” value with RH-41 (Rhabdomyosarcoma) is 0.883; in [8], 0.829; in assay [9], 1; in assay [10], 0.31; in assay [11], 0.691. The Bliss excess in assay [12] is -0.101.

Consider `N#Cc1cnc(Nc2cc(NC[C@H]3CNCCO3)c(C(F)(F)F)cn2)cn1` [SRA737] + C=CCn1c(=O)c2cnc(Nc3ccc(N4CCN(C)CC4)cc3)nc2n1-c1cccc(C(C)(C)O)n1 [AZD1775] (first compound max 10 µM, partner max 1 µM), for which the “combination Emax” value in assay [13] stood at 0.511.

As to `N#Cc1cnc(Nc2cc(NC[C@H]3CNCCO3)c(C(F)(F)F)cn2)cn1` [SRA737] + CCc1c2c(nc3ccc(O)cc13)-c1cc3c(c(=O)n1C2)COC(=O)[C@]3(O)CC [SN-38] (first compound max 10 µM, 7x7, partner max 0.3 µM), the “combination Emax” value in assay [13] worked out at 0.475.

As to `N#Cc1cnc(Nc2cc(NC[C@H]3CNCCO3)c(C(F)(F)F)cn2)cn1` [SRA737] + Nc1ccn([C@@H]2O[C@H](CO)[C@@H](O)C2(F)F)c(=O)n1 [Gemcitabine] (first compound max 10 µM, 7x7, partner max 0.3 µM), the “combination Emax” value in assay [13] amounted to 0.592.

Turning to `N#Cc1cnc(Nc2cc(NC[C@H]3CNCCO3)c(C(F)(F)F)cn2)cn1` [SRA737] + O=c1[nH]cc(F)c(=O)[nH]1 [5-Fluorouracil] (first compound max 10 µM, 7x7, partner max 20 µM), the “combination Emax” value in [13] is 0.323.

Turning to `C[C@@H](c1ccc2nccn2c1)n1nnc2ncc(-c3cnn(C)c3)nc21` [Savolitinib] + CC1(C)CCC(CN2CCN(c3ccc(C(=O)NS(=O)(=O)c4ccc(NCC5CCOCC5)c([N+](=O)[O-])c4)c(Oc4cnc5[nH]ccc5c4)c3)CC2)=C(c2ccc(Cl)cc2)C1 [Venetoclax] (first compound max 1 µM, 7x7, partner max 1 µM), the “combination Emax” value in assay [1] was found to be 0.101; in the assay on COLO-792 (Melanoma), 0.27; in assay [13], 0.105; in assay [2], 0.131; in assay [3], 0.0502; in assay [4], 0.204. Besides, the “combination Emax” value was 0.12 in the assay on EW-16 (Ewing's Sarcoma); 0.146 in [5]; 0.205 in assay [6]; 0.0862 in the assay on A204 (Rhabdomyosarcoma); 0.168 with AU565 (Breast Carcinoma); 0.2 in the assay with A101D (Melanoma). Moreover, the “combination Emax” value amounted to 0.092 in assay [7]; 0.201 in the assay on RH-41 (Rhabdomyosarcoma); 0.141 in assay [8]; 0.395 in [9]; 0.149 in assay [10]; 0.0933 in assay [11]. Further, the Bliss excess in assay [12] is -0.0524.

For `C[C@@H](c1ccc2nccn2c1)n1nnc2ncc(-c3cnn(C)c3)nc21` [Savolitinib] + CN(CC[C@H](CSC1=CC=CC=C1)NC2=C(C=C(C=C2)S(=O)(=O)NC(=O)C3=CC=C(C=C3)N4CCC(CC4)[C@H](C5=CC=CC=C5C6=CC=C(C=C6)Cl)O)S(=O)(=O)C(F)(F)F)CCO [AZD4320] (first compound max 1 µM, 7x7, partner max 1 µM), the “combination Emax” value in assay [1] was 0.138; in the assay on COLO-792 (Melanoma) it was 0.798; in assay [2], 0.187; in assay [3], 0.17; in assay [4] it was 0.291; with EW-16 (Ewing's Sarcoma), 0.416. The “combination Emax” value was found to be 0.871 in [5]; 0.257 in assay [6]; 0.0836 with A204 (Rhabdomyosarcoma); 0.182 in the assay with AU565 (Breast Carcinoma); 0.409 with A101D (Melanoma); 0.22 in [7]. In addition, the “combination Emax” value in the assay on RH-41 (Rhabdomyosarcoma) was found to be 0.806; in assay [8], 0.417; in [9], 0.994; in [10] it was 0.202; in [11], 0.277. The Bliss excess in assay [12] is -0.0569.

Take `C[C@@H](c1ccc2nccn2c1)n1nnc2ncc(-c3cnn(C)c3)nc21` [Savolitinib] + Cc1c2c(nn1C)CSCc1cc(n(C)n1)CSc1cc(c3ccccc3c1)OCCCc1c(C(=O)O)n(C)c3c-2c(Cl)ccc13 [AZD5991] (first compound max 1 µM, 7x7, partner max 1 µM): the “combination Emax” value came to 0.669 in assay [1]; 0.726 in the assay with COLO-792 (Melanoma); 0.627 in assay [13]; 0.409 in [2]; 0.494 in assay [3]; 0.175 in assay [4]. In addition, the “combination Emax” value came out at 0.167 with EW-16 (Ewing's Sarcoma); 0.173 in [5]; 0.462 in assay [6]; 0.167 in the assay with A204 (Rhabdomyosarcoma); 1 in the assay with AU565 (Breast Carcinoma); 0.386 in the assay with A101D (Melanoma). Besides, the “combination Emax” value amounted to 0.38 in assay [7]; 0.888 in the assay with RH-41 (Rhabdomyosarcoma); 0.181 in assay [8]; 0.209 in [9]; 0.16 in [10]; 0.188 in [11]. In addition, in [12], the Bliss excess was -0.0738.
